Results: ChEMBL document CHEMBL4118163, “Identification and preliminary structure-activity relationship studies of novel pyridyl sulfonamides as potential Chagas disease therapeutic agents” (Bioorg Med Chem Lett, 2018)

What was measured:
Trypanosoma cruzi [1] = test: Antitrypanosomal activity against Trypanosoma cruzi Tulahuen amastigotes infected in mouse L929 cells assessed as reduction in infection level at 10 uM after 96 hrs by beta galactosidase reporter assay relative to control; assay type: functional; conditions: L929, 96 h
[2] = Cytotoxicity against mouse L929 cells assessed as reduction in cell viability after 96 hrs by alamar blue assay; assay type: cell-based; conditions: read-out: LC50
Trypanosoma cruzi [3] = test: Antitrypanosomal activity against Trypanosoma cruzi Tulahuen amastigotes infected in mouse L929 cells after 96 hrs by beta galactosidase reporter assay; assay type: functional, organism-based; conditions: L929, 96 h
[4] = Selectivity index, ratio of LC50 for mouse L929 cells to EC50 for Trypanosoma cruzi Tulahuen amastigotes; assay type: toxicity; conditions: read-out: Selectivity Index
[5] = Cytotoxicity against Swiss Webster mouse cardiomyocyte assessed as reduction in cell viability after 24 hrs by PrestoBlue assay; design: species or system Cardiac Muscle Cell; conditions: cardiomyocytes, read-out: LC50
Trypanosoma cruzi [6] = test: Antitrypanosomal activity against bloodstream trypomastigote stage of Trypanosoma cruzi Y infected in Swiss Webster mouse cardiac cells after 24 hrs; assay type: functional, organism-based
Trypanosoma cruzi [7] = test: Antitrypanosomal activity against Trypanosoma cruzi Silvio X10/7 intracellular forms; assay type: functional, organism-based
Vero = test: Cytotoxic activity against African green monkey Vero cells; assay type: cell-based; conditions: Chlorocebus sabaeus
[8] = Selectivity index, ratio of LC50 for Swiss Webster mouse cardiac cells to EC50 for bloodstream trypomastigote stage of Trypanosoma cruzi Y; assay type: toxicity; conditions: read-out: Selectivity Index

SMILES | inhibition at 10 µM (Trypanosoma cruzi [1]) | CC50 at 96 h [2] | EC50 (Trypanosoma cruzi [3]) | selectivity ratio [4] | CC50 at 24 h [5] | EC50 (Trypanosoma cruzi [6]) | EC50 (Trypanosoma cruzi [7]) | EC50 (Vero) | selectivity ratio [8]
COc1ccc(S(=O)(=O)NCc2ccccn2)c(C)c1C | 7.2% | > 200 µM | – | – | – | – | – | – | –
CCOc1ccc(S(=O)(=O)NCc2cccnc2)c2ccccc12 | 1.1% | > 200 µM | – | – | – | – | – | – | –
CCOc1ccc(S(=O)(=O)Nc2ccncc2)c(C)c1C | 3.6% | > 200 µM | – | – | – | – | – | – | –
CCOc1ccc(S(=O)(=O)NCc2ccccn2)c(C)c1C | 3.6% | > 200 µM | – | – | – | – | – | – | –
COc1ccc(S(=O)(=O)NCc2cccnc2)c2ccccc12 | 28% | > 200 µM | – | – | – | – | – | – | –
COc1c(C)cc(S(=O)(=O)Nc2cccnc2)c(C)c1C | 2.1% | > 200 µM | – | – | – | – | – | – | –
CCCOc1cc(C)c(S(=O)(=O)Nc2cccnc2)cc1C | 78% | > 200 µM | 13.2 µM | > 15 | > 100 µM | > 50 µM | – | – | –
CCOc1ccc(S(=O)(=O)Nc2cccnc2)cc1CC | 3% | > 200 µM | – | – | – | – | – | – | –
COc1ccc(S(=O)(=O)Nc2ccc(Cc3ccncc3)cc2)c2ccccc12 | 0% | > 200 µM | – | – | – | – | – | – | –
COc1ccc2cc(S(=O)(=O)Nc3cccnc3)ccc2c1 | 41.1% | > 200 µM | 5.44 µM | > 36 | > 100 µM | > 50 µM | – | – | –
CCOc1ccc(S(=O)(=O)Nc2cccnc2)c(C)c1C | 62% | > 200 µM | 14.8 µM | > 13.5 | > 100 µM | > 50 µM | – | – | –
CCOc1ccc(S(=O)(=O)Nc2cccnc2)cc1C(C)(C)C | 1.9% | > 200 µM | – | – | – | – | – | – | –
CCOc1ccc(S(=O)(=O)NCc2ccncc2)c(C)c1C | 65% | > 200 µM | 8.62 µM | > 23 | > 100 µM | > 50 µM | – | – | –
COc1cc(C)c(S(=O)(=O)Nc2cccnc2)cc1C(C)C | 26.7% | > 200 µM | – | – | – | – | – | – | –
CCOc1ccc(S(=O)(=O)Nc2cccnc2)c2ccccc12 | – | > 400 µM | > 25 µM | – | – | – | 5.5 µM | 50 µM | –
CCOc1ccc(S(=O)(=O)Nc2ccncc2)c2ccccc12 | 0.1% | > 200 µM | – | – | – | – | – | – | –
O=C(Cn1ccnc1[N+](=O)[O-])NCc1ccccc1 [BENZNIDAZOLE] | 89.3% | > 400 µM | 3.51 µM | > 114 | > 1000 µM | 11.2 µM | – | – | > 89
CC1CS(=O)(=O)CCN1/N=C/c1ccc([N+](=O)[O-])o1 (centres undefined) [NIFURTIMOX] | – | – | – | – | – | – | 0.9 µM | 50 µM | –
